Experiments:
[1] = test system: receptor tyrosine kinase group derived from a cell membrane of MDA-MB468; experiment: activity of receptor tyrosine kinase group, sample for reaction MB468 (ELISA, GST-poly(Glu, Tyr) substrate); type: biochemical; conditions: for effect of inhibiting the activity of a receptor tyrosine kinase group, inhibitor combined with 4557W: Example 2, FIG. 6, 400 μM inhibitor combined with 400 μM 4557W; for effect of inhibiting the activity of a receptor tyrosine kinase group, inhibitor alone: Example 2, FIG. 6, treating solution containing 400 μM inhibitor alone; for inhibition of the activity of the receptor tyrosine kinase group: Example 1, FIG. 3, treating solution containing 400 μM inhibitor, versus sample not treated = 100%
Experimental: (§1) From five kinds of cultured cells (MDA-MB453, MDA-MB468, SKBr3, Hela and HT29), a sample for reaction was prepared. Specifically, the cultured cell and 1 ml of a cell treating solution (containing 20 mM HEPES pH7.4, 0.2% PI, 10% glycerol, 200 μM Na3VO4, and 50 mM NaF) were mixed. By pressing using a pestle, a cell membrane of the resulting mixed solution was destructed to prepare a cell solution. The resulting cell solution was centrifuged, a supernatant was discarded, and a precipitate was recovered. The recovered precipitate and a cell membrane solubilizing solution (containing 20 mM HEPES pH7.4, 1% NP40, 0.2% PI, 10% glycerol, 200 μM Na3VO4, and 50 mM NaF) were mixed. A cell membrane in the mixed solution obtained by pressing using a pestle was solubilized, and centrifuged to recover a supernatant. This supernatant was used as a sample for reaction. MDA-MB453 is a cultured cell derived from a breast cancer, and a sample for reaction prepared from this cell is designated as sample for reaction MB453. MDA-MB468 is a cultured cell derived from a breast cancer, and a sample for reaction prepared from this cell is designated as sample for reaction MB468. SKBr3 is a cultured cell derived from a breast cancer, and a sample for reaction prepared from this cell is designated as sample for reaction SKBr3. Hela is a cultured cell derived from a uterine cervical cancer, and a sample for reaction prepared from this cell is designated sample for reaction Hela. HT29 is a cultured cell derived from a large intestine cancer, and a sample for reaction prepared from this cell is designated sample for reaction HT29.
As a plate for ELISA, a glutathione-coated plate (Reacti-Bind Clear Glutathione Coated Plates, 8-well Strip (PIERCE)) was used. First, each well of the plate was washed with TBS-T (containing 25 mM Tris, 150 mM NaCl and 0.05% Tween 20) three times. Then, into each well was placed 50 μl of the substrate solution 1 containing the GST-poly (Glu, Tyr) substrate prepared in the 1 (TBS containing 5 μg/ml GST-poly (Glu, Tyr) substrate), and this was incubated at 25° C. for 1 hour while slightly shaken. After incubation, each well was washed with TBS-T two times. Further, each well was washed with 20 mM HEPES pH7.4 (containing 0.05% Tween 20) once. Like this, the GST-poly (Glu, Tyr) substrate was bound to a surface of a well of the plate for ELISA. This plate for ELISA was used in the following enzyme reaction.
First, 25 μl of the sample for reaction MB453 was dispensed into 6 tubes, respectively. Among 6 tubes, to the first tube was added 25 μl of a treating solution containing 400 μM (20 mM HEPES pH7.4, 20 mM MnCl2, 2 mM DTT, 1% NP40, 10% glycerol, 200 μM Na3VO4, 50 mM NaF, 400 μM ATP). To the second tube was added 25 μl of a treating solution containing 400 μM AG1478. To the third tube was added 25 μl of a treating solution containing 400 μM 4557W. To the fourth tube was added 25 μl of a treating solution containing 400 μM PDGF Receptor Tyrosine Kinase Inhibitor III. To the fifth tube was added 25 μl of a treating solution containing 400 μM VEGF Receptor Tyrosine Kinase Inhibitor III. To the sixth tube was added 25 μl of a treating solution containing no inhibitor. The thus obtained solutions are used as a reaction solution. Similarly, using the sample for reaction MB468, the sample for reaction SKBr3, the sample for reaction Hela and the sample for reaction HT29, samples for reaction were prepared. In order to suppress the enzyme activity of receptor tyrosine kinase, this working was performed under the condition of not higher than 4° C.
Fifty microliter of each reaction solution was placed into separate wells of the plate for ELISA, and this was incubated at 25° C. for about 30 minutes. After incubation, 100 μl of a reaction stopping solution (TBS-T containing 1 mM EDTA) was added to each well, followed by further washing with TBS-T three times. Then, each well was washed with 300 μl of StartingBlock T20 (TBS) Blocking Buffer (PIERCE). […]

[2] = test system: receptor tyrosine kinase group derived from a cell membrane of MDA-MB453; experiment: activity of receptor tyrosine kinase group, sample for reaction MB453 (ELISA, GST-poly(Glu, Tyr) substrate); type: biochemical; conditions: Example 1, FIG. 3, treating solution containing 400 μM inhibitor, versus sample not treated = 100%
Experimental: as §1, with “Hela is a cultured cell derived from a uterine cervical cancer, and a sample for reaction prepared from this cell is designated sample for reaction Hela. HT29 is a cultured cell derived from a large intestine cancer, and a sample for reaction prepared from this cell is designated sample for reaction HT29.” left out

[3] = test system: receptor tyrosine kinase group derived from a cell membrane of SKBr3; experiment: activity of receptor tyrosine kinase group, sample for reaction SKBr3 (ELISA, GST-poly(Glu, Tyr) substrate); type: biochemical; conditions: Example 1, FIG. 3, treating solution containing 400 μM inhibitor, versus sample not treated = 100%
Experimental: as §1, with “Hela is a cultured cell derived from a uterine cervical cancer, and a sample for reaction prepared from this cell is designated sample for reaction Hela. HT29 is a cultured cell derived from a large intestine cancer, and a sample for reaction prepared from this cell is designated sample for reaction HT29.” left out

[4] = test system: HT29; experiment: cell proliferation, CellTiter-Glo Luminescent Cell Viability Assay; type: cell-based; conditions: Comparative Example 1, FIG. 4, final concentration 1 × 10^−5 M (Table 1), cultured 3 days
Experimental: (§2) Cells were seeded on each well of a plate for culturing (96 Well Solid White Flat Bottom Polystyrene TC-Treated Microplates, Corning) at 1000 cells per well, and cultured at 37° C. for 24 hours. After culturing, an inhibitor was added to each well, and cells were further cultured at 37° C. for 3 days. As cells, five kinds of cultured cells used in Example 1 (MDA-MB453, MDA-MB468, SKBr3, Hela and HT29) were used. As the inhibitor, five kinds of inhibitors used in Example 1 (PD153035, AG1478, 4557W, PDGF Receptor Tyrosine Kinase Inhibitor III and VEGF Receptor Tyrosine Kinase Inhibitor III) were used. In Table 1, the final concentration is a concentration when the inhibitor is added to a well, and is mixed with cells.
(§3) For measuring cell proliferation, CellTiter-Glo Luminescent Cell Viability Assay (Promega) was used. This is a reagent kit which can quantitate ATP derived from a cell having the metabolism activity in a medium to measure a viable cell. First, according to a protocol attached to the kit, a measurement reagent was prepared. The measurement reagent was added at 100 μl per well, and a culturing plate was stirred with a shaker for 2 minutes. After stirring, the plate was allowed to stand for 10 minutes, and […] was measured using GENios (TECAN). Since […] is generated in proportion with an amount of ATP derived from a cell having the metabolism activity in a medium, a viable cell in a medium can be measured by measuring […].
(§4) Based on the measurement result, radar charts of FIG. 4 were produced. FIG. 4 contains a radar chart in the case of use of MDA-MB453, a radar chart in the case of use of MDA-MB468, a radar chart in the case of use of SKBr3, a radar chart in the case of use of Hela, and a radar chart in the case of use of HT29. These radar charts show a proportion of a measured value obtained by treating a cell with an inhibitor, letting a measured value when a cell was not treated with an inhibitor to be 100%. In radar charts, 1 is the case where a cell was treated with PD153035, 2 is the case where a cell was treated with AG1478, 3 is the case where a cell was treated with 4557W, 4 is the case where a cell was treated with PDGF Receptor Tyrosine Kinase Inhibitor III, and 5 is the case where a cell was treated with VEGF Receptor Tyrosine Kinase Inhibitor III.

[5] = test system: SKBr3; experiment: as above; type: cell-based; conditions: Comparative Example 1, FIG. 4, final concentration 1 × 10^−5 M (Table 1), cultured 3 days
Experimental: as §2, §3, §4

[6] = test system: MDA-MB453; experiment: as above; type: cell-based; conditions: Comparative Example 1, FIG. 4, final concentration 1 × 10^−5 M (Table 1), cultured 3 days
Experimental: as §2, §3, §4

[7] = test system: MDA-MB468; experiment: as above; type: cell-based; conditions: cultured 3 days
Experimental: as §2, §3, §4

[8] = test system: receptor tyrosine kinase group derived from a cell membrane of HT29; experiment: activity of receptor tyrosine kinase group, sample for reaction HT29 (ELISA, GST-poly(Glu, Tyr) substrate); type: biochemical; conditions: Example 1, FIG. 3, treating solution containing 400 μM inhibitor, versus sample not treated = 100%
Experimental: as §1, with “Hela is a cultured cell derived from a uterine cervical cancer, and a sample for reaction prepared from this cell is designated sample for reaction Hela. HT29 is a cultured cell derived from a large intestine cancer, and a sample for reaction prepared from this cell is designated sample for reaction HT29.” left out

[9] = test system: MDA-MB468 tumor; experiment: proliferation of tumor cell in a mouse body (tumor volume); type: in vivo; conditions: Comparative Example 2, FIG. 5; BALB/c nu/nu mouse with MDA-MB468 tumor; 30 mg/kg/day injected for 7 days; compared with DMSO
Experimental: MDA-MB468 used in Example 1 was cultured in a culturing solution (DMEM-F12 (Sigma) containing 10% FBS (Hyclone)) so that it became 60% confluent in a 225 cm^2 flask. The resulting cultured cells were suspended to about 1×10^7 in 100 μl of DMEM-F12, to prepare a MDA-MB468 cell solution.
A fat pad of a 10-week old female mouse (BALB/c nu/nu) was injected with 100 μl of the MDA-MB468 cell solution. After 14 days, it was confirmed that a tumor became large in a mouse body. Like this, a tumor was formed in three mice bodies.
Fourteen days after injection with the MDA-MB468 cell solution, a mouse in which a tumor had been generated was injected with an inhibitor solution. Specifically, AG1478 used in Example 1 was dissolved in 100 μl of dimethyl sulfoxide (DMSO, Sigma) to prepare an inhibitor solution 1. And, the inhibitor solution 1 was injected into a mouse to a dose of the inhibitor of 30 mg/kg/day. […]
The day when the mouse was first injected with an inhibitor solution was regarded as the first day after injection. And, on the first day, the third day, the fifth day, and the eighth day after injection, a volume of a tumor in a mouse body was measured. As a volume of a tumor, a long diameter and a short diameter of a tumor were measured, and a volume was calculated from a long diameter and a short diameter on the assumption that a shape of a tumor was an elliptic sphere.

[10] = Comparative Example 1, FIG. 4, final concentration 1 × 10^−6 M (Table 1)

COc1cc2ncnc(N3CCN(C(=O)Nc4ccc(Oc5ccccc5)cc4)CC3)c2cc1OC
effect of inhibiting the activity of a receptor tyrosine kinase group, inhibitor combined with 4557W [1]: high activity inhibiting effect
effect of inhibiting the activity of a receptor tyrosine kinase group, inhibitor alone [1]: little effect

CCCNC(=O)Nc1ccc(Oc2ncnc3cc(OC)c(OC)cc23)cc1Cl
effect of inhibiting the activity of a receptor tyrosine kinase group, inhibitor combined with 4557W [1]: high activity inhibiting effect
effect of inhibiting the activity of a receptor tyrosine kinase group, inhibitor alone [1]: little effect

COc1cc2ncnc(Nc3ccc(OCc4ccccc4)cc3)c2cc1OC [4557W]
inhibition of the activity of the receptor tyrosine kinase group [1]: inhibited
effect of inhibiting the activity of a receptor tyrosine kinase group, inhibitor alone [1]: highest activity inhibiting effect
inhibition of the activity of the receptor tyrosine kinase group [2]: inhibited
inhibition of the activity of the receptor tyrosine kinase group [3]: inhibited
inhibition of proliferation [4]: recognized
inhibition of proliferation [5]: recognized
inhibition of proliferation [6]: recognized
inhibition of proliferation ([7]; Comparative Example 1, FIG. 4, final concentration 1 × 10^−5 M (Table 1)): recognized
inhibition of the activity of the receptor tyrosine kinase group [8]: inhibited
inhibition of proliferation of a tumor cell in a mouse body (change in volume of tumor) [9]: recognized

COc1cc2ncnc(Nc3cccc(Cl)c3)c2cc1OC [AG1478]
inhibition of the activity of the receptor tyrosine kinase group [1]: inhibited
inhibition of proliferation [7, 10]: recognized
inhibition of proliferation of a tumor cell in a mouse body (change in volume of tumor) [9]: recognized

COc1cc2ncnc(Nc3cccc(Br)c3)c2cc1OC [PD153035]
inhibition of the activity of the receptor tyrosine kinase group [1]: inhibited
inhibition of proliferation [7, 10]: recognized

Source: US20080090254A1, “Method for assessing proliferation inhibiting effect of inhibitor, and method for determining sensitivity of tumor cell to inhibitor” (SYSMEX CORPORATION, priority 2006, published 2008)
